{"source": "patent US20050084546A1", "about": "“Antioxidant and antiactinic tea plant products” (priority 2003, published 2005)", "key": {"Fibroblasts": {"tested_on": "Fibroblasts", "experiment": "UV cytotoxicity assay, cell count in hemocytometer", "format": "cell-based", "method": "Fibroblasts, grown in Dulbecco medium (DM) supplemented with fetal calf serum are plated in 24 well plates at a density of 20,000 cells per well. Twelve hours after plating, fresh DM with fetal calf serum is added. After an additional 12 hours various test materials as set forth in Table 3, are added to the wells. Six, twelve and twenty four hours later, cultures are exposed to UV at varying low and high doses. The low dose is chosen to stimulate growth and cause a hyper-proliferative response, while the higher dose is chosen to induce cytotoxic effects. After 72 and 144 hours, cells are trypsinized, and counted in a hemocytometer chamber. The cytotoxicity test results using the indicated quantities of the test materials to inhibit free radical toxicity, are set forth in Table 3, below. The control is an aliquot of water."}, "Cytochrome C": {"tested_on": "Cytochrome C", "experiment": "In vitro cytochrome C oxidation-reduction assay in the presence of isolated neutrophils (antioxidant activity)", "format": "biochemical", "description": "An in vitro cytochrome C oxidation-reduction assay conducted in the presence of isolated neutrophils is used to assess the antioxidant activity of a group of test materials comprising aqueous extracts of the inventive mixed tea blend prepared by the method of Example 3 having the concentrations indicated in Table 1, below, and known antioxidant materials, namely green tea extract, white tea extract, grape polyphenols and vitamin E, as controls. Reduction of cytochrome C by free radicals causes an increase in light absorbence at 550 nm. Cytochrome C is an ubiquitous iron-containing cellular respiratory enzyme. Singlet oxygen prevents free radical reduction and the consequent increase in light absorbance. The oxidation-reduction assay determines the ability of the test materials to control the activity of chemically generated singlet oxygen, permitting the reductive free radicals to induce increased light absorbence, which is measured.\nThe assay system employed, determination of the impact of singlet oxygen on a biological entity, cytochrome C, is believed to be a useful model of in vivo activity. However, the invention is not dependent upon this or any other theory."}, "[1]": {"tested_on": "stratum corneum (skin cell turnover)", "experiment": "In vivo inhibition of UV-induced skin cell renewal, dansyl chloride staining technique", "parameters": "species or system human", "method": "The dansyl chloride staining technique is used to measure rates of skin cell turnover, under normal conditions and under conditions of exposure to ultraviolet light with and without protection from various test materials.\nSummarizing known procedural methods, the stratum corneum is stained with fluorescent dansyl chloride by applying semi-occlusive patches of 5% dansyl chloride milled into petrolatum for 24 hours. After assuring that the stain is completely taken up by the stratum corneum layers by viewing under a quartz mineral lamp, subjects are instructed to apply water or the test product. Skin sites are treated with the various doses of UV indicated in MED in Table 6A, below, 3 days prior to and 1 day after patching with dansyl chloride. Visual inspection of the sites under UV lamp is made until the stain disappears reflecting the time required for complete turnover of the full thickness stratum corneum. Changes in cell renewal due to test material effects and UV exposure can be expressed as a percentage change compared to water-treated or untreated controls."}, "[2]": {"tested_on": "fibroblasts and keratinocytes", "experiment": "Free radical (ROS, xanthine oxidase/hypoxanthine) cytotoxicity inhibition, MTT dye method", "format": "cell-based", "conditions": "about 24 hours", "description": "Xanthine oxidase and hypoxanthine, referenced “XO” in Table 2, are employed together as a system to generate free radicals such as hydrogen peroxide, the hydroxyl radical and superoxide, as is known in the art. The free radical products of xanthine oxidase and hypoxanthine referenced “ROS” hereinafter, provide a test system which can be used to model the ability of test materials to protect biological organisms against the action of free radicals.\nTest 2 determines the ability of the group of test materials employed in Test 1 to reduce ROS cytotoxicity to fibroblasts and keratinocytes. Cells are seeded in 96-well plates and grown for two days. They are then exposed for about 24 hours to hypoxanthine at 100 □ g/ml and to various concentrations of xanthine oxidase, ranging, as shown in Table 2's column headers, from 2 mU/ml to 40 mU/ml. Fresh culture medium is added after exposure to ROS and cell death is assessed by the conventional MTT dye method wherein light absorbence at 570 nm is measured. Only living cells take up the MTT dye which absorbs at the measurement wavelength. The cytotoxicity test results, using the quantity of the test materials listed to inhibit free radical toxicity, are set forth in Table 2, below. The control is an aliquot of water."}}, "data": [{"substance": "vitamin E", "values": [{"measurement": "Cell Survival after Exposure to UV", "setting": "Fibroblasts; UV 1 mJ/cm2", "value": 65, "unit": "%"}, {"measurement": "Cell Survival after Exposure to UV", "setting": "Fibroblasts; UV 2 mJ/cm2", "value": 42, "unit": "%"}, {"measurement": "Cell Survival after Exposure to UV", "setting": "Fibroblasts; UV 5 mJ/cm2", "value": 35, "unit": "%"}, {"measurement": "Cell Survival after Exposure to UV", "setting": "Fibroblasts; UV 10 mJ/cm2", "value": 20, "unit": "%"}, {"measurement": "Inhibition of Cytochrome C Oxidation", "setting": "Cytochrome C; test material 0.1 μg/ml", "value": 21, "unit": "%"}, {"measurement": "Inhibition of Cytochrome C Oxidation", "setting": "Cytochrome C; test material 1.0 μg/ml", "value": 15, "unit": "%"}, {"measurement": "Inhibition of Cytochrome C Oxidation", "setting": "Cytochrome C; test material 10 μg/ml", "value": 11, "unit": "%"}, {"measurement": "Inhibition of Cytochrome C Oxidation", "setting": "Cytochrome C; test material 25 μg/ml", "value": 14, "unit": "%"}, {"measurement": "Hyperproliferative Effect", "setting": "[1]; decrease in turnover time with UV versus no UV", "value": 41.9, "unit": "%"}, {"measurement": "Skin cell turnover, No UV Exposure", "setting": "[1]; time for dansyl chloride stain to disappear (Table 5 gives turnover in days), no UV", "value": 18.1}, {"measurement": "Skin cell turnover, UV Exposure", "setting": "[1]; time for dansyl chloride stain to disappear (Table 5 gives turnover in days), with UV exposure", "value": 10.5}, {"measurement": "Protection against UV-induced hyperproliferation (in words)", "setting": "[1]; topical, UV exposure", "value": "no protection"}, {"measurement": "Cell Survival after Exposure to ROS Free Radicals", "setting": "[2]; XO 2 mU, hypoxanthine […]", "value": 89, "unit": "%"}, {"measurement": "Cell Survival after Exposure to ROS Free Radicals", "setting": "[2]; XO 10 mU, hypoxanthine 100 µg/ml", "value": 47, "unit": "%"}, {"measurement": "Cell Survival after Exposure to ROS Free Radicals", "setting": "[2]; XO 20 mU, hypoxanthine 100 µg/ml", "value": 25, "unit": "%"}, {"measurement": "Cell Survival after Exposure to ROS Free Radicals", "setting": "[2]; XO 40 MU, hypoxanthine […]", "value": 13, "unit": "%"}]}]}
